Results as given in patent publication US6825340B2, “Methods and reagents for inactivating ribonucleases” (Ambion, Inc., priority 1998, dated 2004).

System: RNase mixture (RNase A, RNase 1, RNase T1)
Test: Non-isotopic RNase inactivation assay (mouse total RNA, agarose gel)
Assay type: biochemical, human, E. coli and a fungus
Design: key to RNase Inactivation Water / RNase Inactivation Buffer A / RNase Inactivation Buffer B / RNase Inactivation Buffer C: (+) indicates that the RNase mixture was inactivated; (−) indicates that the RNase mixture was not activated as determined by the non-isotopic assay
Settings: for RNase Inactivation Buffer B: 50 mM Tris-HCl (pH 7.0); for RNase Inactivation Buffer C: 30 mM NaCl, 3 mM sodium citrate (pH 7.5)
Description: The inventors routinely perform assays on RNA designed to assess RNase activity in a sample. Two different assays are typically used for the detection of ribonuclease activity, non-isotopic and isotopic. […] In both assays, the inactivation process is typically performed on a mixture of three different ribonucleases: RNase A, RNase 1, and RNase T1. Each ribonuclease is purified from a different species: […], E. coli and a fungus, respectively. The three RNases are very different from each other in their origin, substrate specificity and protein sequence. In this way, the inactivation process can test three completely different but well characterized ribonucleases. The standard stock RNase mixture employed in the following examples is prepared by combining 1 μl RNase 1 (100 U/μl; Ambion), 1 μl RNase cocktail (RNase A, 0.5 U/μl; RNase T1, 20 U/μl, Ambion) and 98 μl water. The non-isotopic assay uses total RNA isolated from mouse as the substrate for the RNase mixture. […] A quantity of 4 μg of total RNA isolated from mouse liver or brain was dissolved in an aqueous solution, usually water or 1 mM sodium citrate (pH 6.6). The treated ribonuclease sample was added to the total RNA and then incubated at 37° C. for 1 or 16 hours, depending on the sensitivity desired for the assay. After incubation, the RNA was fractionated in a formaldehyde 1% agarose gel. The RNA was detected by staining with ethidium bromide and then illuminating the gel with ultraviolet light. The RNA fluoresces in the gel. Untreated total RNA was also fractionated as a control with the test samples for comparative purposes. […] Intact total RNA has two major bands produced by the 28S and 18S ribosomal RNA. […] The RNase cocktail was made to various concentrations in different buffers in different DTT concentrations and incubated at 37° C. or 60° C. for 20 minutes. Total mouse RNA was added to the treated RNase mixture and incubated at 37° C. for one hour, fractionated in a formaldehyde denaturing 1% agarose gel and the RNA visualized by ethidium bromide staining and UV fluorescence.

[1] = RNase Mix 64 ng/ml, DTT 5 mM, 60° C. for 20 minutes
[2] = RNase Mix 64 ng/ml, DTT 10 mM, 37° C. for 20 minutes
[3] = RNase Mix 64 ng/ml, DTT 10 mM, 60° C. for 20 minutes
[4] = RNase Mix 95 ng/ml, DTT 5 mM, 60° C. for 20 minutes
[5] = RNase Mix 95 ng/ml, DTT 10 mM, 37° C. for 20 minutes
[6] = RNase Mix 95 ng/ml, DTT 10 mM, 60° C. for 20 minutes
[7] = RNase Mix 191 ng/ml, DTT 5 mM, 60° C. for 20 minutes
[8] = RNase Mix 191 ng/ml, DTT 10 mM, 37° C. for 20 minutes
[9] = RNase Mix 191 ng/ml, DTT 10 mM, 60° C. for 20 minutes
[10] = RNase Mix 191 ng/ml, DTT 20 mM, 60° C. for 20 minutes
[11] = RNase Mix 954 ng/ml, DTT 5 mM, 60° C. for 20 minutes
[12] = RNase Mix 954 ng/ml, DTT 10 mM, 37° C. for 20 minutes
[13] = RNase Mix 954 ng/ml, DTT 10 mM, 60° C. for 20 minutes
[14] = RNase Mix 954 ng/ml, DTT 20 mM, 60° C. for 20 minutes

SMILES: O[C@H](CS)[C@H](O)CS [DTT, dithiothreitol]
- concentration of RNase mixture completely inactivated (20 mM DTT, 1 mM sodium citrate (pH 6.4), 60° C. for 20 minutes, non-isotopic assay, 1 hour incubation): up to 200 ng/ml
- inactivation of sequentially added RNases (20 mM DTT, 1 mM sodium citrate (pH 6.4), RNases 200 ng/ml per addition, heating at 60° C. for 20 minutes after each addition): completely inactivated
- concentration of RNase mixture completely inactivated in the presence of RNA (20 mM DTT, mouse liver total RNA 4 μg/10 μl, 1 mM sodium citrate (pH 6.4), 60° C. for 20 minutes): up to 3.125 ng/ml
- effect of sequentially added RNases without reheating (20 mM DTT, same buffer, not subjected to the 60° C. incubation): complete RNA degradation
- 60° C. incubation time required for inactivation (RNase 200 ng/ml, 20 mM DTT, 60° C.): at least 4 minutes
- RNase Inactivation Buffer A (RNase Mix 64 ng/ml, DTT 5 mM, 60° C. for 20 minutes, 1 mM sodium citrate (pH 6.4)): +
- RNase Inactivation Buffer B [1]: +
- RNase Inactivation Buffer C [1]: +
- RNase Inactivation Water [1]: +
- RNase Inactivation Buffer A (RNase Mix 64 ng/ml, DTT 10 mM, 37° C. for 20 minutes, 1 mM sodium citrate (pH 6.4)): +
- RNase Inactivation Buffer B [2]: +
- RNase Inactivation Buffer C [2]: +
- RNase Inactivation Water [2]: +
- RNase Inactivation Buffer A (RNase Mix 64 ng/ml, DTT 10 mM, 60° C. for 20 minutes, 1 mM sodium citrate (pH 6.4)): +
- RNase Inactivation Buffer B [3]: +
- RNase Inactivation Buffer C [3]: +
- RNase Inactivation Water [3]: +
- RNase Inactivation Buffer A (RNase Mix 95 ng/ml, DTT 5 mM, 60° C. for 20 minutes, 1 mM sodium citrate (pH 6.4)): −
- RNase Inactivation Buffer B [4]: −
- RNase Inactivation Buffer C [4]: −
- RNase Inactivation Water [4]: −
- RNase Inactivation Buffer A (RNase Mix 95 ng/ml, DTT 10 mM, 37° C. for 20 minutes, 1 mM sodium citrate (pH 6.4)): −
- RNase Inactivation Buffer B [5]: −
- RNase Inactivation Buffer C [5]: −
- RNase Inactivation Water [5]: −
- RNase Inactivation Buffer A (RNase Mix 95 ng/ml, DTT 10 mM, 60° C. for 20 minutes, 1 mM sodium citrate (pH 6.4)): +
- RNase Inactivation Buffer B [6]: +
- RNase Inactivation Buffer C [6]: +
- RNase Inactivation Water [6]: +
- RNase Inactivation Buffer A (RNase Mix 191 ng/ml, DTT 5 mM, 60° C. for 20 minutes, 1 mM sodium citrate (pH 6.4)): −
- RNase Inactivation Buffer B [7]: −
- RNase Inactivation Buffer C [7]: −
- RNase Inactivation Water [7]: −
- RNase Inactivation Buffer A (RNase Mix 191 ng/ml, DTT 10 mM, 37° C. for 20 minutes, 1 mM sodium citrate (pH 6.4)): −
- RNase Inactivation Buffer B [8]: −
- RNase Inactivation Buffer C [8]: −
- RNase Inactivation Water [8]: −
- RNase Inactivation Buffer A (RNase Mix 191 ng/ml, DTT 10 mM, 60° C. for 20 minutes, 1 mM sodium citrate (pH 6.4)): +
- RNase Inactivation Buffer B [9]: +
- RNase Inactivation Buffer C [9]: +
- RNase Inactivation Water [9]: +
- RNase Inactivation Buffer A (RNase Mix 191 ng/ml, DTT 20 mM, 60° C. for 20 minutes, 1 mM sodium citrate (pH 6.4)): +
- RNase Inactivation Buffer B [10]: +
- RNase Inactivation Buffer C [10]: +
- RNase Inactivation Water [10]: +
- RNase Inactivation Buffer A (RNase Mix 954 ng/ml, DTT 5 mM, 60° C. for 20 minutes, 1 mM sodium citrate (pH 6.4)): −
- RNase Inactivation Buffer B [11]: −
- RNase Inactivation Buffer C [11]: −
- RNase Inactivation Water [11]: −
- RNase Inactivation Buffer A (RNase Mix 954 ng/ml, DTT 10 mM, 37° C. for 20 minutes, 1 mM sodium citrate (pH 6.4)): −
- RNase Inactivation Buffer B [12]: −
- RNase Inactivation Buffer C [12]: −
- RNase Inactivation Water [12]: −
- RNase Inactivation Buffer A (RNase Mix 954 ng/ml, DTT 10 mM, 60° C. for 20 minutes, 1 mM sodium citrate (pH 6.4)): −
- RNase Inactivation Buffer B [13]: −
- RNase Inactivation Buffer C [13]: −
- RNase Inactivation Water [13]: −
- RNase Inactivation Buffer A (RNase Mix 954 ng/ml, DTT 20 mM, 60° C. for 20 minutes, 1 mM sodium citrate (pH 6.4)): +
- RNase Inactivation Buffer B [14]: +
- RNase Inactivation Buffer C [14]: +
- RNase Inactivation Water [14]: +
- RNase mixture inactivation (RNase mixture 64 ng/ml, 10 mM DTT, 37° C. for 20 minutes): inactivated
- RNase activity inactivated (RNase mixture 200 ng/ml, 20 mM DTT, 60° C. for 1 minute): approximately 50%
- RNase activity inactivated (RNase mixture 200 ng/ml, 20 mM DTT, 60° C. for 2 minutes): ~80%
- RNase activity inactivated (RNase mixture 200 ng/ml, 20 mM DTT, 60° C. for 4 minutes): ~100%
- RNase inactivation in different buffers and solutions (RNase mixture 200 ng/ml, 20 mM DTT, 60° C. for 20 minutes, 17 solutions, non-isotopic): inactivated RNase activity in all of buffers and solutions tested
- RNase mixture inactivation (RNase mixture 200 ng/ml, 20 mM DTT, 60° C. for less than 30 seconds): did not inactivate
- RNase mixture inactivation (RNase mixture 954 ng/ml, 20 mM DTT, 60° C. for 20 minutes): inactivated
- RNase activity on retest after storage (solutions with inactivated RNases stored at 4° C. for one month): none of the solutions had detectable RNase activity
